Experimental data published in patent EP2907512A1, “Inhibitors of MMP-12 as antiviral Agents” (COMMISSARIAT A L'ENERGIE ATOMIQUE ET AUX ENERGIES …, priority 2014, dated 2015).

Test system: HeLa cells
Assay: IFNα secretion (ELISA) and IFNα immunostaining in CVB3-infected HeLa cells pre-treated with inhibitors
Assay type: cell-based
Details: for IFNα secretion: cells infected with CVB3, ELISA of medium, vs DMSO control

With `Cc1ccc(S(=O)(=O)/C=C/C#N)cc1` [Bay11-7082] the “intracellular IFNα staining” value (HeLa cells infected with CVB3 for 4 h, immunostaining) was “greater intracellular IFNα staining” and the IFNα secretion was “not secreted”.
For `N#CC(=C(/N)Sc1ccccc1N)/C(C#N)=C(\N)Sc1ccccc1N` [Compound U0126], the IFNα secretion was “secreted”.
